Laboratory results from patent publication US9174951B2, “Glucose transporter inhibitors” (The Ohio State University Research Foundation, priority 2012, dated 2015).

What was measured:
[1] = test system: LNCaP cells; experiment: [3H]2-DG glucose uptake assay in LNCaP cells; assay type: cell-based, human; conditions: for IC50: Homo sapiens, LNCaP, Krebs-Ringer phosphate buffer, 37° C., 30 min of drug treatment, read-out: IC50 in blocking [3H]2-DG uptake into LNCaP cells; for inhibition of [3H]2-DG uptake into LNCaP cells (screening, in words): each at 5 μM, 30 min of exposure
Procedure: Screening of the focused compound library to identify lead glucose uptake inhibitors.
Glucose Uptake Assay. LNCaP cells were seeded in six-well plates (3×10^5 cells/well) for 24 h. […] The cells were lysed in […] lysis buffer (10 mM Tris-HCl pH 8.0, 0.1% SDS) and aliquots were taken for measurement of radioactivity using a scintillation counter (Beckman LS6500).

[2] = test system: LNCaP cells; experiment: MTT cell viability assay, LNCaP; assay type: cell-based, human; conditions: Homo sapiens, LNCaP, 72 h, MTT, 10% FBS
Procedure: Cell Viability Assay. Cell viability was determined using the 3-(4,5-dimethylthiazol-2-yl)-2,5-diphenyltetrazolium bromide (MTT) assay. Cancer cells were seeded at 5000 cells/well and normal cells were seeded at 8000 cells/well in 96-well plates and incubated in 10% FBS-supplemented medium for 24 h. Cells were then treated with individual agents for 72 h. Drug-containing medium was replaced with medium containing MTT (0.5 mg/mL), followed by incubation at 37° C. for 1 h. After removal of medium, the reduced MTT dye in each well was solubilized in 100 μL of DMSO and absorbance at 570 nm was measured.
Compound 30 was evaluated for antiproliferative activity in panels of different human cancer cells lines, including those of prostate, breast and pancreatic cancers. In all experiments, cells were treated with a range of concentrations of Compound 30 in the presence of 10% fetal bovine serum (FBS). Cell viability was then determined after 72 h of treatment using the 3-(4,5-dimethylthiazol-2-yl)-2,5-diphenyltetrazolium bromide (MTT) assay. […] It is noteworthy that despite this high antiproliferative potency, normal human prostate epithelial cells (PrECs) were resistant to the cytotoxic effect of Compound 30 even at 10 μM.

Compound | IC50 [1] | IC50 [2] | inhibition of [3H]2-DG uptake into LNCaP cells (screening, in words) [1]
CC1(COc2ccc(CC3SC(=O)NC3=O)cc2)CCCCC1 (stereo not shown) [Compound 1, ciglitazone, reference compound] | 78 µM | 60 µM | –
O=C1SC(=Cc2ccc(O)c(C(F)(F)F)c2)C(=O)N1CC(F)(CC(F)(F)F)CC(F)(F)F [Compound 29, 5-(4-Hydroxy-3-trifluoromethyl-benzylidene)-3-[2,4,4,4-tetrafluoro-2-(2,2,2-trifluoro-ethyl)-butyl]-thiazolidine-2,4-dione] | – | – | substantially improved potency relative to compound 5
CC1(CN2C(=O)S/C(=C\c3ccc(O)c(C(F)(F)F)c3)C2=O)CCCCC1 [Compound 4, (Z)-5-(4-hydroxy-3-(trifluoromethyl)benzylidene)-3-((1-methylcyclohexyl)methyl)thiazolidine-2,4-dione, reference compound] | 9 µM | 6 µM | –

Further molecules by falling IC50 [1], results first:

IC50 [1] | IC50 [2] | Compound | inhibition of [3H]2-DG uptake into LNCaP cells (screening, in words) [1]
52 µM | 28 µM | CC1(COc2ccc(/C=C3\SC(=O)NC3=O)cc2)CCCCC1 [Compound 2, (Z)-5-(4-[(1-methylcyclohexyl)methoxy]benzylidene)-thiazolidine-2,4-dione, reference compound] | –
3.5 µM | 2.2 µM | O=C1SC(=Cc2ccc(O)c(C(F)(F)F)c2)C(=O)N1CC(CC(F)(F)F)CC(F)(F)F [Compound 28, 5-(4-Hydroxy-3-trifluoromethyl-benzylidene)-3-[4,4,4-trifluoro-2-(2,2,2-trifluoro-ethyl)-butyl]-thiazolidine-2,4-dione] | substantially improved potency relative to compound 5
